Test results taken from US20230406865A1, “CRYSTAL FORM OF FREE BASE OF INHIBITOR CONTAINING BICYCLIC RING DERIVATIVE AND PREPARATION METHOD AND APPLICATION OF CRYSTAL FORM” (SHANGHAI HANSOH BIOMEDICAL CO., LTD., priority 2020, published 2023).

Columns and labels:
RET kinase = biological target: T1, RET kinase (Homo sapiens, UniProt P07949); experiment: HTRF kinase activity inhibition, RET wild-type; assay type: biochemical; conditions: ATP at Km
T1 construct: purchased Carna 08-159
Method in brief: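 HTRF (KinEASE-TK) kinase assay with recombinant RET wild-type, RET V804M, RET V804L and KIF5B-RET enzymes plus ATP.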

[1] = system: TT cells (MTC, RET C634W); experiment: Inhibition of proliferation of TT cells (CellTiter-Glo, 72 h); assay type: cell-based; conditions: Homo sapiens
Method in brief: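 TT cells seeded overnight, then exposed to compound dilutions for 72 h at 37 °C, 5% CO2, with a solvent control. Viability read by CellTiter-Glo luminescence; IC50 from nonlinear regression of inhibition rate versus concentration.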

RET M918T = biological target: T2, RET M918T (Homo sapiens, UniProt P07949, M918T); experiment: HTRF kinase activity inhibition, RET M918T; assay type: biochemical; conditions: ATP at Km
T2 construct: purchased Carna 08-508
T2 sequence (P07949 29-1114 M918T): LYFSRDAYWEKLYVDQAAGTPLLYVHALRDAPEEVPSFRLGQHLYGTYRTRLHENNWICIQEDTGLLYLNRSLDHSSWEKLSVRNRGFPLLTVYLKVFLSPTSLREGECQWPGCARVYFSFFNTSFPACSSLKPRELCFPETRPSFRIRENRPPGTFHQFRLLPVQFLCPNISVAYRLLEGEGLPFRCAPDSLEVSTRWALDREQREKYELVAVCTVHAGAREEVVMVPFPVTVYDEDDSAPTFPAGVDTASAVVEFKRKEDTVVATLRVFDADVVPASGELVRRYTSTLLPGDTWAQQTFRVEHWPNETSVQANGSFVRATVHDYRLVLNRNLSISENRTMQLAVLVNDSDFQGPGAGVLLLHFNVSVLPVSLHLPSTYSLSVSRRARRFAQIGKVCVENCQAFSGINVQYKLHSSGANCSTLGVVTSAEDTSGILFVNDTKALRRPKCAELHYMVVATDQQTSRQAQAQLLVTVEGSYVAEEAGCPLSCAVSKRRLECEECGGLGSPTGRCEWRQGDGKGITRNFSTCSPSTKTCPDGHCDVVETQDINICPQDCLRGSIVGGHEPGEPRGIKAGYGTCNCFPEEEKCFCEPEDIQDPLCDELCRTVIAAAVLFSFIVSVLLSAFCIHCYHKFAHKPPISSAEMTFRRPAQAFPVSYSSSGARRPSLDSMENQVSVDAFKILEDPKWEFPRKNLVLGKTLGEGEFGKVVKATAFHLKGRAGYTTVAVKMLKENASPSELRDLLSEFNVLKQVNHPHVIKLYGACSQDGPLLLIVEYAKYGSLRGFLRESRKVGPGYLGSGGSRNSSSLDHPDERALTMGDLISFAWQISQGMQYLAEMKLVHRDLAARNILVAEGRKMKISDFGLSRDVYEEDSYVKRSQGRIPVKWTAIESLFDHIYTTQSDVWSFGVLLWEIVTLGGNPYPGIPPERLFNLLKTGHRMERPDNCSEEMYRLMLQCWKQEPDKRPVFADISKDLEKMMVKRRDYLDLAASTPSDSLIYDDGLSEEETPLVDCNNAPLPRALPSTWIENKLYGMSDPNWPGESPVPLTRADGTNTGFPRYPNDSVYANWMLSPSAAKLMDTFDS
Source text: 2.2 Experimental Reagents: • RET enzyme was purchased from Carna Company, and the article number was 08-159; • RET M918T enzyme was purchased from Carna Company, and the article number was 08-508; • KIF5B-RET was purchased from SignalChem Company, the article number was R02-19FG-05; • CCDC6-RET was purchased from SignalChem Company, the article number was R02-19BG-05; • RET V804M enzyme was purchased from Thermofisher Company, and the article number was PV6223; • RET V804L enzyme was purchased from Thermofisher Company, and the article number was PV4397; • HTRF KinEASE-TK kit was purchased from Cisbio Company, and the article number was 62TK0PEC; • ATP was purchased from Thermofisher Company, and the article number was PV3227; • 384-well plate was purchased from PerkinElmer Company, and the article number was 6007290.
In this experiment, a homogeneous time-resolved fluorescence (HTRF) method was used for the detection of compounds on RET kinase activity.

Ba/F3 KIF5B-RET cells = biological target: T3, Ba/F3 KIF5B-RET cells (Homo sapiens, UniProt P07949); experiment: Inhibition of proliferation of Ba/F3 KIF5B-RET cells (CellTiter-Glo); assay type: cell-based; conditions: 72 to 144 hours
T3 construct: fused on or other part: P33176 (Kinesin-1 heavy chain)
T3 sequence (P07949 whole entry, change not shown, the tested form may be a part): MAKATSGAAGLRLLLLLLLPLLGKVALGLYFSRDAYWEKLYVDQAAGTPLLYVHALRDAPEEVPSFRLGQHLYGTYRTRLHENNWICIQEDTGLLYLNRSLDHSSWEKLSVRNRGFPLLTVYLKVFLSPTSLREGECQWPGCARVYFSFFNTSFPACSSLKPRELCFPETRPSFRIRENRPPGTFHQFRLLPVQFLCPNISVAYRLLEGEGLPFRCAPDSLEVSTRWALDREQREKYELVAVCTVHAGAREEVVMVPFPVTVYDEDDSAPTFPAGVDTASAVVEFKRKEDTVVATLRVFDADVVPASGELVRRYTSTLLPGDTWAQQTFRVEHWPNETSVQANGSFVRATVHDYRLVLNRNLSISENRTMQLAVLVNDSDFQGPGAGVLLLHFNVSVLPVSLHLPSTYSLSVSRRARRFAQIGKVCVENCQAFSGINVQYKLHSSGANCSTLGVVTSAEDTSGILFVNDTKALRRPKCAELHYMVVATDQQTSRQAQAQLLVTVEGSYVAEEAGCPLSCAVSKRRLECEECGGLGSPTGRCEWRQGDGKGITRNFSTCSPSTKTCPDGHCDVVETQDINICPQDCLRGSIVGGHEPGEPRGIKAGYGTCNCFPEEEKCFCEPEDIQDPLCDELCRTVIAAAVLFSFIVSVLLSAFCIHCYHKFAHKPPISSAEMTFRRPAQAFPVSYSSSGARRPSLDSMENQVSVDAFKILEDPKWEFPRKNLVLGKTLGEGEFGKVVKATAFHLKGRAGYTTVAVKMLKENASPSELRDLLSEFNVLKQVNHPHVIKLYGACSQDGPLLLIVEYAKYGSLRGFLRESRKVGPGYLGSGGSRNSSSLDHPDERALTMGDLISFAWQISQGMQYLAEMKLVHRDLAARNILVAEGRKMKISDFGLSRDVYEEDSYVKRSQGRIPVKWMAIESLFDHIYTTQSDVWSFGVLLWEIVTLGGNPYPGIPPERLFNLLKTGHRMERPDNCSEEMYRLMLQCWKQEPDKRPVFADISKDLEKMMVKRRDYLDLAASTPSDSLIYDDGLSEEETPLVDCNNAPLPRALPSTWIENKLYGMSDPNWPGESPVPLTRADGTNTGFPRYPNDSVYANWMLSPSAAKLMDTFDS
Method in brief: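 Cells plated overnight, then exposed to compound dilutions in DMSO/medium at 37° C, 5% CO2 for 72 to 144 hours. Viability read by CellTiter-Glo luminescence; IC50 from inhibition rates fitted by nonlinear regression.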

[2] = Balb/C mouse pharmacokinetics, oral 5 mg/kg; assay type: in vivo, Balb/C mice; conditions: male, p.o. 5 mg/kg, plasma; for MRT: read-out: Average residence time MRT; for Cmax: read-out: Blood concentration Cmax; for AUC(0-t): read-out: Curve area AUC0-t; for AUC(0-inf): read-out: Curve area AUC0-∞; for half-life: read-out: Half-life t1/2 (converted); for Tmax: read-out: Peak time tmax
Method in brief: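 Male Balb/C mice (6 per compound) were fasted overnight and dosed in 0.5% CMC-Na (1% Tween80) solution or suspension. EDTA-K2 plasma was sampled at 0, 0.5, 1, 2, 4, 6, 8 and 24 h. Compound levels were measured by LC/MS/MS after acetonitrile precipitation, and PK parameters were derived from the plasma profiles.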

KDR kinase = biological target: T4, KDR kinase (Homo sapiens, UniProt P35968); experiment: HTRF kinase activity inhibition, KDR; assay type: biochemical; conditions: for IC50: HTRF, ATP at Km; for Ratio (KDR/RET): KDR IC50 / RET IC50
T4 construct: purchased Carna 08-191
T4 sequence (P35968 20-1356): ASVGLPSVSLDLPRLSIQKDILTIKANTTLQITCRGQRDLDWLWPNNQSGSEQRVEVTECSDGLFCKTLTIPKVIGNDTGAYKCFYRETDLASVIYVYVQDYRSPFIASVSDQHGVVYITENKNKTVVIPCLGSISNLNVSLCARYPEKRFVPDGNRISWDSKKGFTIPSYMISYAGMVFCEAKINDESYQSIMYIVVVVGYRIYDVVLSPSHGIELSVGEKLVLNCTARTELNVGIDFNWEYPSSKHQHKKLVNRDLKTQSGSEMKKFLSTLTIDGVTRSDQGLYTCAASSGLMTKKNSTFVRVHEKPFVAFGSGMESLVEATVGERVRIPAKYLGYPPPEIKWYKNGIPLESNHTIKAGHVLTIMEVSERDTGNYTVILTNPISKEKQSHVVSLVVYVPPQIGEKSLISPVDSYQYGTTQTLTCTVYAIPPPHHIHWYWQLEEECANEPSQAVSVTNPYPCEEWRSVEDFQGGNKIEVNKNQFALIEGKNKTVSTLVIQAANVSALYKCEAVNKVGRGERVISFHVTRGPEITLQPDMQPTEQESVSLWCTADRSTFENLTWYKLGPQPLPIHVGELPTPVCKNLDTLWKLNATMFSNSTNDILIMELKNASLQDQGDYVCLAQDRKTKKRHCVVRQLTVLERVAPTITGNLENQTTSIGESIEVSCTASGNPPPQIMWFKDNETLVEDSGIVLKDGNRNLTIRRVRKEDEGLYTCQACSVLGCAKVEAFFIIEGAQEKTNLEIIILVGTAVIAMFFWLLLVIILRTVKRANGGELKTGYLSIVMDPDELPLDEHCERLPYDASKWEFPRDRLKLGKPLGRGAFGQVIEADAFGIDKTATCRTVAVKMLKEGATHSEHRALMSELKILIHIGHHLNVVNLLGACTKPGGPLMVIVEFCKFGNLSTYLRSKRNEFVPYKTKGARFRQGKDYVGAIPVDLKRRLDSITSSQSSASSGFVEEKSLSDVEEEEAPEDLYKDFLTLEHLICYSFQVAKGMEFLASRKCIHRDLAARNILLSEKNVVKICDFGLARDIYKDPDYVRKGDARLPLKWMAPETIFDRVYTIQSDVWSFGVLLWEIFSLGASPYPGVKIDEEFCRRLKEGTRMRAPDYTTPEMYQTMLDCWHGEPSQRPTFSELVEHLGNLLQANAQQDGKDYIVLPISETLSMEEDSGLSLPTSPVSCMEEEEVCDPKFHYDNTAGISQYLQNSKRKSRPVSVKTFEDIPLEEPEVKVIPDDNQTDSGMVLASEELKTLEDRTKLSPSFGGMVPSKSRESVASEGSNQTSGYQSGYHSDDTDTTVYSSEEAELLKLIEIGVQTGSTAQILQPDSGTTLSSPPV
Method in brief: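 Inhibition of KDR kinase activity measured by homogeneous time-resolved fluorescence with a tyrosine-kinase KinEASE substrate kit and ATP.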

[3] = system: subcutaneous transplanted tumor of Ba/F3 KIF5B-RET cells; experiment: Tumor suppression on Ba/F3 KIF5B-RET transplanted tumor model; assay type: in vivo, BALB/c nude mice
Method: Ba/F3 KIF5B-RET cells were removed from the cell bank, resuscitated and added to RPMI1640 medium (RPMI1640+10% FBS+1% Glu+1% P/S), then cultured in a CO2 incubator (incubator temperature was 37° C., CO2 concentration was 5%), and when the cell number expanded to the required number for in vivo inoculation, Ba/F3 KIF5B-RET cells were collected. The cells were counted with an automatic cell counter, resuspended with PBS according to the count results, made into a cell suspension (density was 2×10^7/mL), and placed in an ice box for use.
Female BALB/c nude mice aged 6-8 weeks were used, weighing about 18-22 g. Mice were reared in SPF animal room, and were reared in a single cage with 5 mice in each cage. All cages, bedding and water were sterilized at high temperature before use, and all animals were allowed to eat and drink freely. Nude mice were labeled with disposable universal ear tags for mice and rats before the start of the experiment, and the skin of the inoculation site was disinfected with 75% medical alcohol before inoculation. 0.1 mL (containing 2*10^6 cells) of Ba/F3 KIF5B-RET cells were inoculated subcutaneously on the right back of each mouse. Group administration was initiated when the tumor volume reached 60-200 mm^3, with 5 mice in each group. Each test compound was administered orally twice a day for 14 days. The tumor volume and the weight of mice were measured twice a week, and the tumor TGI (%) was calculated.
The tumor volume (mm^3) was calculated as V=0.5*D*d*d, where D and d were the long and short diameters of the tumor, respectively.
When there was no tumor regression, TGI (%)=[(1-(mean tumor volume at the end of the administration in a treatment group−mean tumor volume at the start of administration in the treatment group))/(mean tumor volume at the end of treatment in the solvent control group−mean tumor volume at the start of treatment in the solvent control group)]×100%.
When there was tumor regression, TGI (%)=[1-(mean tumor volume at the end of administration in a treatment group−mean tumor volume at the beginning of administration in the treatment group)/mean tumor volume at the beginning of administration in the treatment group]×100%.

T1 sequence (P07949 29-1114): as the sequence (P07949 29-1114 M918T) above, with T890M counted along it

Structure (SMILES) | IC50 (RET kinase) [nM] | IC50 [1] [nM] | IC50 (RET M918T) [nM] | IC50 (Ba/F3 KIF5B-RET cells) [nM] | MRT [2] [h] | Cmax [2] [ng/mL] | AUC(0-t) [2] [ng·h/mL] | AUC(0-inf) [2] [ng·h/mL] | half-life [2] [h] | Tmax [2] [h] | IC50 (KDR kinase) [nM] | Ratio (KDR/RET) (KDR kinase) | Tumor volume (Mean ± SD) Day 0 ([3]; 10 mg/kg oral twice a day) [mm^3] | TGI (%) Day 14 ([3]; 10 mg/kg oral twice a day) [%] | Tumor volume (Mean ± SD) Day 14 ([3]; 10 mg/kg oral twice a day) [mm^3] | Tumor volume (Mean ± SD) Day 0 ([3]; 30 mg/kg oral twice a day) [mm^3] | TGI (%) Day 14 ([3]; 30 mg/kg oral twice a day) [%] | Tumor volume (Mean ± SD) Day 14 ([3]; 30 mg/kg oral twice a day) [mm^3]
COc1ccc(CN2C3CC2CN(c2ccc(-c4cc(N5CC(C(C)(C)O)C5)cn5ncc(C#N)c45)cn2)C3)cn1 [Embodiment 7, 6-(3-(2-Hydroxypropan-2-yl)azetidin-1-yl)-4-(6-(6-((6-methoxypyridin-3-yl)methyl)-3,6-diazabicyclo[3.1.1]heptan-3-yl)pyridin-3-yl)pyrazolo[1,5-a]pyridine-3-carbonitrile] | 0.69 | 11 | 1.06 | 13 | 3.76 | 3280 | 13800 | 13800 | 2.18 | 0.5 | 11 | 16 | 100.80 ± 31.28 | 90.82 | 232.46 ± 133.65 | – | – | –
COc1ccc(CN2C3CC2CN(c2ccc(-c4cc(C#CC(C)(C)O)cn5ncc(C#N)c45)cn2)C3)cn1 [Embodiment 8, 6-(3-Hydroxy-3-methylbut-1-yn-1-yl)-4-(6-(6-((6-methoxypyridin-3-yl)methyl)-3,6-diazabicyclo[3.1.1]heptan-3-yl)pyridin-3-yl)pyrazolo[1,5-a]pyridine-3-carbonitrile] | 0.48 | 17 | 0.67 | 12 | 4.91 | 3710 | 21400 | 21500 | 3.37 | 0.5 | 16 | 34 | – | – | – | – | – | –
COc1ccc(CN2C3CC2CN(c2ccc(-c4cc(C#CC(C)(C)N)cn5ncc(C#N)c45)cn2)C3)cn1 [Embodiment 17, 6-(3-Amino-3-methylbut-1-yn-1-yl)-4-(6-(6-((6-methoxypyridin-3-yl)methyl)-3,6-diazabicyclo[3.1.1]heptan-3-yl)pyridin-3-yl)pyrazolo[1,5-a]pyridine-3-carbonitrile] | 0.39 | 13.1 | 0.38 | – | – | – | – | – | – | – | 8.2 | 21 | – | – | – | – | – | –
COc1ncc(CN2C3CC2CN(c2ccc(-c4cc(N5CC(C(C)(C)O)C5)cn5ncc(C#N)c45)cn2)C3)cc1F [Embodiment 31, 4-(6-(6-((5-Fluoro-6-methoxypyridin-3-yl)methyl)-3,6-diazabicyclo[3.1.1]heptan-3-yl)pyridin-3-yl)-6-(3-(2-hydroxypropan-2-yl)azetidin-1-yl)pyrazolo[1,5-a]pyridine-3-carbonitrile] | 0.75 | 6.59 | 0.47 | – | 4.71 | 3120 | 18900 | 18900 | 2.66 | 0.5 | 23 | 30 | – | – | – | – | – | –
C#CC(C)(O)COc1cc(-c2ccc(N3CC4CC(C3)N4Cc3ccc(OC)nc3)nc2)c2c(C#N)cnn2c1 (stereo not shown) [Embodiment 62, 6-((2-Hydroxy-2-methylbut-3-yn-1-yl)oxy)-4-(6-(6-((6-methoxypyridin-3-yl)methyl)-3,6-diazabicyclo[3.1.1]heptan-3-yl)pyridin-3-yl)pyrazolo[1,5-a]pyridine-3-carbonitrile] | 0.48 | – | – | – | 4.07 | 2820 | 13800 | 13800 | 2.4 | 0.5 | 35.2 | 73 | 100.24 ± 27.85 | 89.74 | 247.52 ± 85.65 | – | – | –
C#C[C@](C)(O)COc1cc(-c2ccc(N3CC4CC(C3)N4Cc3cnc(OC)c(F)c3)nc2)c2c(C#N)cnn2c1 [Embodiment 65, 4-(6-(6-((5-Fluoro-6-methoxypyridin-3-yl)methyl)-3,6-diazabicyclo[3.1.1]heptan-3-yl)pyridin-3-yl)-6-(((S)-2-hydroxy-2-methylbut-3-yn-1-yl)oxy)pyrazolo[1,5-a]pyridine-3-carbonitrile] | 0.33 | 12.7 | – | 7.03 | 5.24 | 2400 | 20200 | 20300 | 3.05 | 2 | 14.5 | 44 | 100.40 ± 29.77 | 87.71 | 276.69 ± 106.21 | – | – | –
CC(C)(O)C#Cc1cc(-c2ccc(N3CCC(C)(NC(=O)c4ncccc4Cl)CC3)nc2)c2c(C#N)cnn2c1 [Embodiment 85, 3-Chloro-N-(1-(5-(3-cyano-6-(3-hydroxy-3-methylbut-1-yn-1-yl)pyrazolo[1,5-a]pyridin-4-yl)pyridin-2-yl)-4-methylpiperidin-4-yl)picolinamide] | 0.38 | 9.44 | 0.79 | – | – | – | – | – | – | – | 46 | 122 | – | – | – | – | – | –
CC1(NC(=O)c2ncccc2Cl)CCN(c2ccc(-c3cc(OCC4(C#N)CC4)cn4ncc(C#N)c34)cn2)CC1 [Embodiment 92, 3-Chloro-N-(1-(5-(3-cyano-6-((1-cyanocyclopropyl)methoxy)pyrazolo[1,5-a]pyridin-4-yl)pyridin-2-yl)-4-methylpiperidin-4-yl)picolinamide] | 0.85 | 27.4 | – | 32.1 | 2.85 | 9340 | 24500 | 24500 | 1.7 | 0.5 | 185 | 218 | – | – | – | 133.41 ± 18.82 | 126.35 | 98.26 ± 33.71
